IC50 data for 16 compounds are collected here from patent USRE46630E1, “Substituted 4-pyridones and their use as inhibitors of neutrophil elastase activity” (Boehringer Ingelheim International GmbH, priority 2012, dated 2017).

The test addresses T1, Human neutrophil elastase (Homo sapiens, UniProt P08246).
T1 construct: purchased Calbiochem 324681
T1 sequence (P08246 30-267): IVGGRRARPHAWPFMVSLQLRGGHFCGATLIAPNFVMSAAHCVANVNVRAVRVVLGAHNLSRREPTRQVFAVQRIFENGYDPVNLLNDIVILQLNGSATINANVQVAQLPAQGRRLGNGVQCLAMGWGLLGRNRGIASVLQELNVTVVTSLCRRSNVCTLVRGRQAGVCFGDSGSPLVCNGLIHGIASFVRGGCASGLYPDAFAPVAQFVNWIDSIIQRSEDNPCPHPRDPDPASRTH
The experiment in a line: Human Neutrophil Elastase Assay. In kind it is biochemical. The note with it: Neutrophil Elastase assay; substrate MeOSuc-Ala-Ala-Pro-Val-AMC 250 μM; 15 min preincubation, 60 min incubation at room temperature; pH 7.5. An outline of the steps: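 Run in 100 mM Tris, 500 mM NaCl, pH 7.5 with 0.01% BSA, with compounds prediluted in DMSO then buffer (5% DMSO final). Fluorescence was read at 380 nm excitation/460 nm emission after enzyme inactivation. Values were normalised to inactivated-enzyme (0%) and uninhibited-enzyme (100%) controls.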

Where only a bound is given, the exact number is not on record here.

As usually defined, the IC50 is the concentration at which inhibition is half-maximal. Consider `CCS(=O)(=O)c1cc(C#N)ccc1Cn1cc(C(=O)NC)c(=O)c(-c2cccc(C(F)(F)F)c2)c1C` [Example 26], for which the 50% inhibitory concentration (IC50) is 0.0108 µM.

For `CNC(=O)c1cn(Cc2ccc(C#N)cc2S(=O)(=O)C2CC2)c(C)c(-c2cccc(C(F)(F)F)c2)c1=O` [Example 27], inhibition was half-maximal at 0.0081 µM (IC50).

Compound `CNC(=O)c1cn(C(C)c2ccc(C#N)cc2)c(C)c(-c2ccc(F)c(C(F)F)c2)c1=O` (stereo not shown) [Example 28] gave a 50% inhibitory concentration (IC50) of 0.0133 µM.

As to `CNC(=O)c1cn(C(C)c2ccc(C#N)cc2)c(C)c(-c2cccc(C)c2)c1=O` (stereo not shown) [Example 29], the midpoint of inhibition, the IC50, lay at 0.0144 µM.

`CNC(=O)c1cn(C(C)c2ccc(C#N)cc2)c(C)c(-c2ccc(F)c(C(F)(F)F)c2)c1=O` (stereo not shown) [Example 30]: the IC50 was 0.0053 µM.

Consider `CNC(=O)c1cn(C(C)c2ccc(C#N)cc2)c(C)c(-c2cccc(CF)c2)c1=O` (stereo not shown) [Example 31, 1-[1-(4-Cyano-phenyl)-ethyl]-5-(3-fluoromethyl-phenyl)-6-methyl-4-oxo-1,4-dihydro-pyridine-3-carboxylic acid methylamide], for which 0.0078 µM corresponded to half-maximal inhibition (IC50).

For `CNC(=O)c1cn(Cc2ccc(C#N)cc2F)c(C)c(-c2cccc(C(F)F)c2)c1=O` [Example 32], the 50% inhibitory concentration (IC50) was 0.0118 µM.

As for `CNC(=O)c1cn(Cc2ccc(C#N)c(F)c2)c(C)c(-c2cccc(C(F)F)c2)c1=O` [Example 33], the midpoint of inhibition, the IC50, lay at 0.014 µM.

As for `CNC(=O)c1cn(Cc2ccc(C#N)cn2)c(C)c(-c2cccc(C(F)F)c2)c1=O` [Example 34], the IC50 came out at 0.0312 µM.

Regarding `CCNC(=O)c1cn(C(CC)c2ccc(C#N)cc2)c(C)c(-c2cccc(C(F)(F)F)c2)c1=O` (stereo not shown) [Example 35, 1-[1-(4-Cyano-phenyl)-propyl]-6-methyl-4-oxo-5-(3-trifluoromethyl-phenyl)-1,4-dihydro-pyridine-3-carboxylic acid ethylamide], the 50% inhibitory concentration (IC50) worked out at 0.0078 µM.

Take `CCC(c1ccc(C#N)cc1)n1cc(C(=O)NC)c(=O)c(-c2ccnc(C(F)(F)F)c2)c1C` (stereo not shown) [Example 36, 1-[1-(4-Cyano-phenyl)-propyl]-2-methyl-4-oxo-2′-trifluoromethyl-1,4-dihydro-[3,4′]bipyridinyl-5-carboxylic acid methylamide]: it took 0.0184 µM to reach half-maximal inhibition (IC50).

Turning to `CNC(=O)c1cn(C2CCc3cc(C#N)ccc32)c(C)c(-c2cccc(C(F)(F)F)c2)c1=O` (stereo not shown) [Example 37, 1-(5-Cyano-indan-1-yl)-6-methyl-4-oxo-5-(3-trifluoromethyl-phenyl)-1,4-dihydro-pyridine-3-carboxylic acid methylamide], the IC50 came to 0.0137 µM. This IC50 and that of the compound before are within 1.5-fold of each other.

`CCNC(=O)c1cn(C(C)c2ccc(C#N)cc2)c(C)c(-c2ccnc(C(F)F)c2)c1=O` (stereo not shown) [Example 38, 1-[1-(4-Cyano-phenyl)-ethyl]-2′-difluoromethyl-2-methyl-4-oxo-1,4-dihydro-[3,4′]bipyridinyl-5-carboxylic acid ethylamide] came in with an IC50 of 0.011 µM.

`Cc1c(-c2cccc(C(F)F)c2)c(=O)c(C(=O)NCc2ccc(S(C)(=O)=O)cc2)cn1Cc1ccc(C#N)c(F)c1` [Example 39, 1-(4-Cyano-3-fluoro-benzyl)-5-(3-difluoromethyl-phenyl)-6-methyl-4-oxo-1,4-dihydro-pyridine-3-carboxylic acid 4-methanesulfonyl-benzylamide]: the IC50 was less than 0.001 µM.

For `Cc1c(-c2cccc(C(F)F)c2)c(=O)c(C(=O)NCc2ccc(S(C)(=O)=O)cc2)cn1Cc1ccc(C#N)cn1` [Example 40, 1-(5-Cyano-pyridin-2-ylmethyl)-5-(3-difluoromethyl-phenyl)-6-methyl-4-oxo-1,4-dihydro-pyridine-3-carboxylic acid 4-methanesulfonyl-benzylamide], the IC50 was less than 0.001 µM.

As to `Cc1c(-c2cccc(C(F)F)c2)c(=O)c(C(=O)NCc2ccc(S(C)(=O)=O)cc2)cn1Cc1ccc(C#N)cc1F` [Example 41, 1-(4-Cyano-2-fluoro-benzyl)-5-(3-difluoromethyl-phenyl)-6-methyl-4-oxo-1,4-dihydro-pyridine-3-carboxylic acid 4-methanesulfonyl-benzylamide], the IC50 was less than 0.001 µM.
